Assay results as given in patent US5902812A, “Pharmaceutical piperazine compounds” (Xenova Limited, priority 1994, dated 1999).
pIC50: −log10 of the molar value. Counter-ions that a name gives are not always drawn. Like-named read-outs stand apart in the source and are kept apart here. Values belong to the compound of their own block, whether it stands above or below them.

Target: PAI-1 (Homo sapiens, UniProt P05121)
Experiment: biochemical
Conditions: for pIC50: PAI chromogenic substrate assay, read-out: IC50; for inhibition at 20 µM / inhibition at 100 µM / inhibition at 6.25 µM / inhibition at 12.5 µM / inhibition at 25 µM / inhibition at 50 µM: read-out: Degree of inhibition in PAI chromogenic substrate assay
[1] = 20 μM (third part of Table 1), 20 µM

Chain of PAI-1 (P05121 24-402): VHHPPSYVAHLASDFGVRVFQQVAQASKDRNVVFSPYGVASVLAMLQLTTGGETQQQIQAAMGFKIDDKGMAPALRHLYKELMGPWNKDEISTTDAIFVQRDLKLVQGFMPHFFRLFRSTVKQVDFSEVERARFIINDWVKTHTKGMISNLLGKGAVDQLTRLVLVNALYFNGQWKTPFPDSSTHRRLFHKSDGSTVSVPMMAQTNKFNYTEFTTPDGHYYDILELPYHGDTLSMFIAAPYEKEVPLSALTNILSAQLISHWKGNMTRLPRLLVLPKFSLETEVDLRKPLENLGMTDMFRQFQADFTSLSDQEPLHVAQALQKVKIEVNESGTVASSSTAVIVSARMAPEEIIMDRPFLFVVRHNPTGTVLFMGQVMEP
Experimental: In this assay, a compound is incubated with PAI-1 prior to addition to the tPA assay system. Inhibition of PAI-1 results in the production of plasmin from plasminogen. In turn, plasmin cleaves the chromogenic substrate S2251 (Kabi Vitrum) producing pNA (p-nitroaniline) which is detected spectrophotometrically at 405 nm (K. Nilsson et al, Fibrinolysis (1987) 1, 163-168).
Compounds of formula (A) were tested in a PAI chromogenic substrate assay. In the assay (K.Nilsson, Fibrinolysis (1987) 1, 163-168) each compound was incubated with PAI-1 prior to addition to the tPA assay system. […] In turn, the plasmin cleaved the chromogenic substrate S2251 (Kabi-Vitrum) producing pNA (p-nitroaniline) which was detected spectrophotometrically at 405 nm.

pIC50: 4.82
SMILES: CN(C)CCCOc1ccc(/C=c2\[nH]c(=O)/c(=C/c3cccc(OC(F)(F)F)c3)[nH]c2=O)cc1 [Compound 5374, (3Z,6Z)-6-(4-(3-Dimethylaminopropoxy)benzylidene)-3-(3-trifluoromethoxybenzylidene)-2,5-piperazinedione]

inhibition at 20 µM (20 μM (third part of Table 1)): 80%
inhibition at 100 µM (100 μM (third part of Table 1)): 33%
pIC50: 4.82
SMILES: CN(C)CCCOc1ccc(/C=c2\[nH]c(=O)/c(=C/c3cccc(N4C(=O)c5ccccc5C4=O)c3)[nH]c2=O)cc1 [Compound 5255, (3Z,6Z)-6-(4-(3-Dimethylaminopropoxy)benzylidene)-3-(3-phthalimidobenzylidene)-2,5-piperazinedione]

Degree of inhibition in PAI chromogenic substrate assay [1]: 34%
SMILES: CN(C)CCCOc1ccc(/C=c2\[nH]c(=O)/c(=C/c3ccc(C(N)=O)cc3)[nH]c2=O)cc1 [Compound 5246, 4-((3Z,6Z)-6-(4-(3-Dimethylaminopropoxy)benzylidene)-2,5-dioxo-3-piperazinylidene)methylbenzamide]

Degree of inhibition in PAI chromogenic substrate assay (6.25 μM): 56%
Degree of inhibition in PAI chromogenic substrate assay (12.5 μM): 63%
Degree of inhibition in PAI chromogenic substrate assay (25 μM): 67%
Degree of inhibition in PAI chromogenic substrate assay (50 μM): 64%
inhibition at 100 µM (100 μM): 32%
SMILES: CN(C)CCOc1ccc(/C=c2\[nH]c(=O)/c(=C/c3ccccc3)[nH]c2=O)c(Cl)c1.Cl [Compound 1960, (3Z,6Z)-6-Benzylidene-3-(2-chloro-4-(2-dimethylaminoethoxy)benzylidene)-2,5-piperazinedione, hydrochloride]

inhibition at 6.25 µM (6.25 μM): 0%
inhibition at 12.5 µM (12.5 μM): 5%
inhibition at 25 µM (25 μM): 24%
inhibition at 50 µM (50 μM): 46%
inhibition at 100 µM (100 μM): 83%
SMILES: CCCCCCC(=O)Oc1ccc(/C=c2\[nH]c(=O)/c(=C/c3ccc(OC)cc3)[nH]c2=O)cc1 [Compound 1887, (3Z,6Z)-3-(4-Heptanoyloxybenzylidene)-6-(4-methoxybenzylidene)-2,5-piperazinedione]

inhibition at 20 µM (20 μM (third part of Table 1)): 54%
pIC50: 5.38
SMILES: CN(C)CCCOc1ccc(/C=c2\[nH]c(=O)/c(=C/c3ccc(Cl)c([N+](=O)[O-])c3)[nH]c2=O)cc1 [Compound 5398, (3Z,6Z)-3-(4-Chloro-3-nitrobenzylidene)-6-(4-(3-dimethylaminopropoxy)benzylidene)-2,5-piperazinedione]

Degree of inhibition in PAI chromogenic substrate assay (12.5 μM): 1%
Degree of inhibition in PAI chromogenic substrate assay (25 μM): 1%
Degree of inhibition in PAI chromogenic substrate assay (50 μM): 1%
Degree of inhibition in PAI chromogenic substrate assay (100 μM): 7%
SMILES: CN(C)CCOc1ccccc1/C=c1\[nH]c(=O)/c(=C/c2ccccc2)[nH]c1=O [Compound 1946, (3Z,6Z)-3-Benzylidene-6-(2-(2-dimethylaminoethoxy)benzylidene)-2,5-piperazinedione]

inhibition at 100 µM (100 μM (third part of Table 1)): 10%
SMILES: CC(=O)Nc1ccccc1/C=c1\[nH]c(=O)/c(=C/c2ccc(OCCCN(C)C)cc2)[nH]c1=O [Compound 5248]

inhibition at 20 µM (20 μM (third part of Table 1)): 42%
inhibition at 100 µM (100 μM (third part of Table 1)): 36%
pIC50: 5.82
SMILES: CN(C)CCCOc1ccc(/C=c2\[nH]c(=O)/c(=C/c3cccc([N+](=O)[O-])c3)[nH]c2=O)cc1 [Compound 5231, (3Z,6Z)-6-(4-(3-Dimethylaminopropoxy)benzylidene)-3-(3-nitrobenzylidene)-2,5-piperazinedione]

Degree of inhibition in PAI chromogenic substrate assay (6.25 μM): 3%
Degree of inhibition in PAI chromogenic substrate assay (12.5 μM): 0%
Degree of inhibition in PAI chromogenic substrate assay (25 μM): 11%
Degree of inhibition in PAI chromogenic substrate assay (50 μM): 41%
Degree of inhibition in PAI chromogenic substrate assay (100 μM): 50%
SMILES: CN(C)CCOc1ccc(/C=c2\[nH]c(=O)/c(=C/c3ccccc3)[nH]c2=O)cc1OCCN(C)C [Compound 1978, (3Z,6Z)-6-Benzylidene-3-(3,4-di-(2-dimethylaminoethoxy)benzylidene)-2,5-piperazinedione]

inhibition at 6.25 µM (6.25 μM): 4%
inhibition at 12.5 µM (12.5 μM): 67%
inhibition at 25 µM (25 μM): 74%
inhibition at 50 µM (50 μM): 71%
inhibition at 100 µM (100 μM): 72%
SMILES: CN(C)CCCOc1ccc(/C=c2\[nH]c(=O)/c(=C/c3ccccc3)[nH]c2=O)cc1 [Compound 1852, (3Z,6Z)-6-Benzylidene-3-(4-(3-dimethylaminopropoxy)benzylidene)-2,5-piperazinedione]

inhibition at 20 µM (20 μM (third part of Table 1)): 12%
inhibition at 50 µM (50 μM (third part of Table 1)): 80%
inhibition at 100 µM (100 μM (third part of Table 1)): 85%
SMILES: CCN(CC)CCOc1ccc(/C=c2\[nH]c(=O)/c(=C/c3ccccc3)[nH]c2=O)cc1 [Compound 5065.HCl]

pIC50: 4.89
SMILES: CN(C)CCCOc1ccc(/C=c2\[nH]c(=O)/c(=C/c3cccc(F)c3)[nH]c2=O)cc1 [Compound 5373, (3Z,6Z)-6-(4-(3-Dimethylaminopropoxy)benzylidene)-3-(3-fluorobenzylidene)-2,5-piperazinedione]

pIC50: 4.82
SMILES: CN(C)CCCOc1ccc(/C=c2\[nH]c(=O)/c(=C/c3cc(Cl)cc(Cl)c3)[nH]c2=O)cc1 [Compound 5380, (3Z,6Z)-3-(3,5-Dichlorobenzylidene)-6-(4-(3-dimethylaminopropoxy)benzylidene)-2,5-piperazinedione]

inhibition at 20 µM (20 μM (third part of Table 1)): 10%
inhibition at 100 µM (100 μM (third part of Table 1)): 32%
SMILES: CN(C)CCCOc1ccc(/C=c2\[nH]c(=O)/c(=C/c3ccccc3[N+](=O)[O-])[nH]c2=O)cc1 [Compound 5208, (3Z,6Z)-6-(4-(3-Dimethylaminopropoxy)benzylidene)-3-(2-nitrobenzylidene)-2,5-piperazinedione]

Degree of inhibition in PAI chromogenic substrate assay [1]: 65%
Degree of inhibition in PAI chromogenic substrate assay (100 μM (third part of Table 1), 100 µM): 46%
pIC50: 5.19
SMILES: CN(C)CCCOc1ccc(/C=c2\[nH]c(=O)/c(=C/c3cccc(Cl)c3)[nH]c2=O)cc1 [Compound 5240]

pIC50: 4.96
SMILES: CN(C)CCCOc1ccc(/C=c2\[nH]c(=O)/c(=C/c3cc(Cl)cc(Cl)c3)[nH]c2=O)cc1 [Compound 5372, (3Z,6Z)-3-(3,5-Dichlorobenzylidene)-6-(4-(3-dimethylaminopropoxy)benzylidene)-2,5-piperazinedione]

SMILES: CCCCOc1ccc(/C=c2\[nH]c(=O)/c(=C/c3ccc(OCCCN(C)C)cc3)[nH]c2=O)cc1 [Compound 1920, (3Z,6Z)-3-(4-Butoxybenzylidene)-6-(4-(3-dimethylaminopropoxy)benzylidene)-2,5-piperazinedione]
inhibition at 6.25 µM (6.25 μM): 33%
inhibition at 12.5 µM (12.5 μM): 50%
inhibition at 25 µM (25 μM): 57%
inhibition at 50 µM (50 μM): 66%
inhibition at 100 µM (100 μM): 68%

inhibition at 6.25 µM (6.25 μM): 1%
inhibition at 12.5 µM (12.5 μM): 1%
inhibition at 25 µM (25 μM): 1%
inhibition at 50 µM (50 μM): 2%
inhibition at 100 µM (100 μM): 2%
SMILES: CN(C)CCOc1ccc(/C=c2\[nH]c(=O)/c(=C/c3ccc(OCCN(C)C)cc3)[nH]c2=O)cc1 [Compound 1962, (3Z,6Z)-3,6-Di-(4-(2-dimethylaminoethoxy)benzylidene)-2,5-piperazinedione dihydrochloride]

inhibition at 20 µM (20 μM (third part of Table 1)): 10%
inhibition at 100 µM (100 μM (third part of Table 1)): 55%
SMILES: CN(C)CCCOc1ccc(/C=c2\[nH]c(=O)/c(=C/c3ccccc3Cl)[nH]c2=O)cc1 [Compound 5249, (3Z,6Z)-3-(2-Chlorobenzylidene)-6-(4-(3-dimethylaminopropoxy)benzylidene)-2,5-piperazinedione]

inhibition at 20 µM (20 μM (third part of Table 1)): 10%
inhibition at 100 µM (100 μM (third part of Table 1)): 46%
SMILES: Cc1ccccc1/C=c1\[nH]c(=O)/c(=C/c2ccc(OCCCN(C)C)cc2)[nH]c1=O [Compound 5186, (3Z,6Z)-6-(4-(3-Dimethylaminopropoxy)benzylidene)-3-(2-methylbenzylidene)-2,5-piperazinedione]
